Experimental data published in patent US20130158111A1, “Compositions and Methods for Depleting Mutant p53” (Georgetown University, priority 2011, published 2013).

Assays:
[1] = biological target: T1, mutant p53 in MDA-MB-231 breast cancer cells (Homo sapiens, UniProt P04637, R280K); assay: Immunoblot of mutant p53 in MDA-MB-231 cells treated with ITCs; assay type: cell-based; conditions: MDA-MB-231, 10 μM ITCs, 24 h, compared with DMSO control
T1 construct: host or cells: MDA-MB-231
Text: Human H596, A549, HCT116, MDA-MB-231, MDA-MB-468, MCF-7, DU145, MCF-10A, SW480, and SCC-4 cells were obtained from ATCC (Manassas, Va.). H1299-175H cells were kindly provided by Dr. Maria Laura Avantaggiati (Georgetown University). Cells were maintained in DMEM or RPMI-1640 medium supplemented with 10% FBS (Hyclone). […] 2,2-Diphenylethyl ITC, 4-phenoxybenzyl ITC, 4-methoxybenzyl ITC, 4-chlorobenzyl ITC, Dα-methylbenzyl ITC, trityl ITC, and 3-phenylpropyl ITC were purchased from Trans World Chemicals (Rockville, Md.). Erucin and 4-phenylbutyl ITC were from LKT Laboratories, Inc. (St. Paul, Minn.). […] The p53 DO-1 and β-actin antibodies were purchased from Santa Cruz Biotechnology (Santa Cruz, Calif.), horseradish peroxidase-labeled goat antimouse secondary antibodies were purchased from GE-Healthcare (Pittsburgh, Pa.), and Bio-Rad Protein Assay was from Bio-Rad (Hercules, Calif.).
Whole cell lysates were prepared in lysis buffer (20 mM HEPES, pH 7.4, 2 mM EGTA, 50 mM β-glycerol phosphate, 1% Triton X-100, 10% glycerol, 1 mM DTT, 1 mM PMSF, […], 1 mM Na3-VO4, and 5 mM NaF). For immunoblot analysis, equal amounts of protein were resolved on 4-12% NuPAGE BisTris gels (Invitrogen) and transferred to PVDF membranes (Millipore). The membranes were blocked with 5% milk in TBST and were then probed with p53 (DO-1) or β-actin antibody. Proteins were detected using enhanced chemiluminescence (ECL) reagents (GE Healthcare).

[2] = biological target: T2, wild-type p53 in A549, HCT116, MCF-7 and MCF-10A cells (Homo sapiens, UniProt P04637); assay: Immunoblot of wild-type p53 in cells with wild-type p53; assay type: cell-based
T2 construct: host or cells: A549, HCT116, MCF-7, MCF-10A
Text: Human H596, A549, HCT116, MDA-MB-231, MDA-MB-468, MCF-7, DU145, MCF-10A, SW480, and SCC-4 cells were obtained from ATCC (Manassas, Va.). H1299-175H cells were kindly provided by Dr. Maria Laura Avantaggiati (Georgetown University). Cells were maintained in DMEM or RPMI-1640 medium supplemented with 10% FBS (Hyclone). DMSO, PEITC, BITC, SFN, AITC, NMPEA, and monochlorobimane were purchased from Sigma-Aldrich (St. Louis, Mo.). 2,2-Diphenylethyl ITC, 4-phenoxybenzyl ITC, 4-methoxybenzyl ITC, 4-chlorobenzyl ITC, Dα-methylbenzyl ITC, trityl ITC, and 3-phenylpropyl ITC were purchased from Trans World Chemicals (Rockville, Md.). Erucin and 4-phenylbutyl ITC were from LKT Laboratories, Inc. (St. Paul, Minn.). […] All the compounds are with purities ≧95% as determined by gas-liquid chromatography or HPLC. […]
Whole cell lysates were prepared in lysis buffer (20 mM HEPES, pH 7.4, 2 mM EGTA, 50 mM β-glycerol phosphate, 1% Triton X-100, 10% glycerol, 1 mM DTT, 1 mM PMSF, […], 1 mM Na3-VO4, and 5 mM NaF). […] Proteins were detected using enhanced chemiluminescence (ECL) reagents (GE Healthcare). […]

[3] = test system: LNCap (wild-type p53) xenograft tumors; assay: Xenograft model, LNCap tumors, PEITC diet; assay type: in vivo, BALB/C nu/nu transgenic mice
Method: Briefly, 30 BALB/C nu/nu transgenic mice (purchased from Charles River) were randomized into two groups, and fed with powder diet AlN93 (purchased from Research Diets, Inc.) with or without addition of 5 μM PEITC compound (purchased from Sigma-Aldrich). After two weeks of feeding, two xenograft tumors each carrying […] in a volume of 100 μL were established by injection into both flanks of a mouse. Mice were continuously fed with diets with or without PEITC for additional 8 weeks before sacrifice. Diet intake and tumor volume were measured twice every week. Tumors were harvested at the end of bioassay for immunohistochemistry and immunoblot studies. […] Immunohistochemistry assays were carried out to examine the apoptotic markers, such as TUNEL, and anti-proliferation marker Ki67 in tumors from the PEITC-treated vs. untreated mice. This study provides the first in vivo evidence that mutant p53 can be depleted in tumors of mice fed PEITC-containing diet and its depletion seems to correlate with growth inhibition in the mutant p53 tumors.

mda-mb-231 (R280K) cells = assay: Cell proliferation, mda-mb-231; assay type: cell-based, Human
Method: Next, the effect of PEITC exposure on tumor growth of the tumor cell lines expressing mutant or the WT p53 protein was examined. […] This hypersensitivity to PEITC being mediated through mutant p53 was next examined. The effect of PEITC on mda-mb-231 cells depleted of mutant p53 by >90% was compared to non-specific (NS) siRNA transfected cells as a control (FIG. 9B). […] Further the effect of PEITC treatment on the level of mutant p53 protein at lower doses was analyzed by western blot analysis (FIG. 9D).

S=C=NCCc1ccccc1 [PEITC, phenethyl isothiocyanate]
depletion of mutant p53 at equimolar concentrations [1]: approximately the same extent | wild-type p53 expression ([2]; 15 or 20 μM PEITC for 2, 4, 8, and 24 h): did not decrease | level of wild type (WT) p53 protein ([2]; PEITC exposure, summary of previous experiments): no significant decrease | p53 level in tumors detected by immunoblot ([3]; LNCap tumors, PEITC diet): not in LNCap tumors | tumor volume ([3]; LNCap xenograft, diet with 5 μM PEITC vs diet without PEITC, 8 weeks): significantly decreased | inhibition at 1 µM (mda-mb-231 (R280K) cells; Homo sapiens, mda-mb-231 (R280K), 1 μM PEITC): 55% | sensitivity to cell growth inhibition (mda-mb-231 (R280K) cells; control (NS) siRNA transfected mda-mb-231 cells): highly sensitive | sensitivity to cell growth inhibition (mda-mb-231 (R280K) cells; mda-mb-231 cells depleted of mutant p53 by >90% (siRNA)): significant reduction in the sensitivity
